{
  "source": "patent US6339077B1",
  "about": "“Substituted 4-benzylaminoquinolines and their hetero analogs, process for their preparation, pharmaceuticals containing these compounds and use thereof” (Aventis Pharma Deutschland GmbH, priority 1999, dated 2002)",
  "data": [
    {"target": "T1, human NHE-3 protein (expressed in the LAP1 cell line) (Homo sapiens, UniProt P48764)", "T1 construct": "expressed in transfected cells; host or cells: LAP1 cell line", "T1 sequence (P48764 26-834)": "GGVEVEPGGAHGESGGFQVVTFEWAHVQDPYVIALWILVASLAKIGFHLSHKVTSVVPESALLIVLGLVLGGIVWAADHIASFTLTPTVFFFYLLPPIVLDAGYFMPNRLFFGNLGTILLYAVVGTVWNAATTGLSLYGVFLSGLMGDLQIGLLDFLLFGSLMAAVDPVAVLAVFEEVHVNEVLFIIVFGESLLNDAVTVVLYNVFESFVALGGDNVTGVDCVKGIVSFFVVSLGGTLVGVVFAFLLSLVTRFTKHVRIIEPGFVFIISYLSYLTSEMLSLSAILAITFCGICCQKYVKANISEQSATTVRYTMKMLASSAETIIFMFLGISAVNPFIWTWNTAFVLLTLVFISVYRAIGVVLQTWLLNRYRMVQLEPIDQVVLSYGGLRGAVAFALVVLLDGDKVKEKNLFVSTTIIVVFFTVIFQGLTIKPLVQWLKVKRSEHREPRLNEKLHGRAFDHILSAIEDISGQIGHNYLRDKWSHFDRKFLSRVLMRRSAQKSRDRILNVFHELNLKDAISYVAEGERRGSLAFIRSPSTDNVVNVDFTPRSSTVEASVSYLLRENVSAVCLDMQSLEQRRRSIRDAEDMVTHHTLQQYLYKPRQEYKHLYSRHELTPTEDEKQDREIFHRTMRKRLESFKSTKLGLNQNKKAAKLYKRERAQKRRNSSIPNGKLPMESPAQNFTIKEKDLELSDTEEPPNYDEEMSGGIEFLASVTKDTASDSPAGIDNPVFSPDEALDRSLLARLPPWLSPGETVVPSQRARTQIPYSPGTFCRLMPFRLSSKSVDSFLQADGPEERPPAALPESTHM", "test": "Inhibition of sodium/proton exchanger subtype 3: recovery of intracellular pH after acidification (BCECF fluorescence)", "format": "cell-based", "conditions": "at 30 μM, pHi recovery as percentage of the maximum recovery", "procedure": "(§1) Biological testing of the novel compounds was accomplished by measuring inhibition of the sodium/proton exchanger subtype 3.\n(§2) The remaining activity of the human NHE-3 protein (expressed in the LAP1 cell line) was determined by measuring the recovery in the intracellular pH (pHi) after an acidification, which starts when the NHE is capable of functioning, even under bicarbonate-free conditions. For this purpose, the pHi was determined using the pH-sensitive fluorescent dye BCECF (Calbiochem, the precursor BCECF-AM is employed). The cells were initially loaded with BCECF. […] The intracellular acidification was induced by addition of 975 μl of an NH4Cl-free buffer (see below) to 25 μl aliquots of the cells incubated in NH4Cl buffer. The subsequent rate of pH recovery was recorded for 3 minutes. To calculate the inhibitory power of the substances tested, the cells were initially investigated in buffers in which complete or absolutely no pH recovery took place. […] Test solutions of the substances of interest were made up in the Na^+-containing buffer. Recovery of the intracellular pH at the tested concentration of a substance was expressed as a percentage of the maximum recovery.", "units": {"remaining activity of hNHE3": "%"}, "values": [
      {"smiles": "CC(=O)c1c(C)nc2ccccc2c1NCc1ccccc1CCC1(O)CCC2(C)C(CC(O)C3C2CC(O)C2(C)C(C(C)CCC(=O)O)CCC32)C1", "note": "(stereo not drawn) [Example 18, 2-Methyl-3-acetyl-4-{2-[1-(3α,7α,12α-trihydroxy-10β,13β-dimethyl-17β(3-carboxy-1-methylpropyl)hexadecahydrocyclopenta[a]phenanthren-3-yl)eth-2-yl]benzylamino}quinoline]", "remaining activity of hNHE3": 36}
    ]},
    {"target": "T1, human NHE-3 protein (expressed in the LAP1 cell line)", "test": "Inhibition of sodium/proton exchanger subtype 3: recovery of intracellular pH after acidification (BCECF fluorescence)", "format": "cell-based", "conditions": "pHi recovery as percentage of the maximum recovery, read-out: remaining activity of hNHE3", "procedure": "as §1, §2", "units": {"remaining activity at 30 µM": "%"}, "values": [
      {"smiles": "CC(=O)c1c(C)nc2ccccc2c1NCc1cccc(CC[C@@]2(O)CC[C@@]3(C)C(C[C@@H](O)C4C3C[C@H](O)[C@@]3(C)C4CC[C@@H]3[C@H](C)CCC(=O)NCC(=O)O)C2)c1", "note": "(stereo partly drawn) [Example 15, 2-Methyl-3-acetyl-4-{3-[1-(3α,7α,12α-trihydroxy-10β,13β-dimethyl-17β-(3-carboxymethylcarbamoyl-1-methylpropyl)hexadecahydrocyclopenta[a]phenanthren-3-yl)eth-2-yl]benzylamino}quinoline]", "remaining activity at 30 µM": 65},
      {"smiles": "CC(=O)c1c(C)nc2ccccc2c1NCc1ccccc1C#CC1(O)CC[C@@]2(C)C(CC(O)C3C2CC(O)[C@@]2(C)C3CC[C@@H]2[C@H](C)CCC(=O)O)C1", "note": "(stereo partly drawn) [Example 17, 2-Methyl-3-acetyl-4-{2-[1-(3α,7α,12α-trihydroxy-10β,13β-dimethyl-17β-(3-carboxy-1-methylpropyl)hexadecahydrocyclopenta[a]phenanthren-3-yl)ethyn-2-yl]benzylamino}quinoline]", "remaining activity at 30 µM": 36},
      {"smiles": "CC(=O)c1c(C)nc2ccccc2c1NCc1ccc(C#CC2(O)CCC3(C)C(CC(O)C4C3CC(O)C3(C)C4CC[C@@H]3C(C)CCC(=O)O)C2)cc1Cl", "note": "(stereo partly drawn) [Example 28, 2-Methyl-3-acetyl-4-{4-[1-(3α,7α,12α-trihydroxy-10β,13β-dimethyl-17β-(3-carboxy-1-methylpropyl)hexadecahydrocyclopenta[a]phenanthren-3-yl)ethyn-2-yl]-2-chlorobenzylamino}quinoline]", "remaining activity at 30 µM": 69},
      {"smiles": "CC(=O)c1c(NCc2ccc(CCC3(O)CC[C@@]4(C)C(CC(O)C5C4CC(O)[C@@]4(C)C5CC[C@@H]4[C@H](C)CCC(=O)O)C3)cc2)cc(C)nc1C", "note": "(stereo partly drawn) [Example 31, 2,6-Dimethyl-3-acetyl-4-{4-[1-(3α,7α,12α-trihydroxy-10β,13β-dimethyl-17β-(3-carboxy-1-methylpropyl)hexadecahydrocyclopenta[a]phenanthren-3-yl)eth-2-yl]benzylamino}pyridine]", "remaining activity at 30 µM": 69},
      {"smiles": "CC(=O)c1c(C)nc2ccccc2c1NCc1ccc(CCC2(O)CCC3(C)C(CC(O)C4C3CC(O)C3(C)C4CC[C@@H]3C(C)CCC(=O)O)C2)cc1F", "note": "(stereo partly drawn) [Example 27, 2-Methyl-3-acetyl-4-{4-[1-(3α,7α,12α-trihydroxy-10β,13β-dimethyl-17β-(3-carboxy-1-methylpropyl)hexadecahydrocyclopenta[a]phenanthren-3-yl)eth-2-yl]-2-fluorobenzylamino}quinoline]", "remaining activity at 30 µM": 54},
      {"smiles": "CC(=O)c1c(C)nc2ccccc2c1NCc1cccc(CC[C@@]2(O)CC[C@@]3(C)C(C[C@@H](O)C4C3C[C@H](O)[C@@]3(C)C4CC[C@@H]3[C@H](C)CCC(=O)NCCS(=O)(=O)O)C2)c1", "note": "(stereo partly drawn) [Example 16, 2-Methyl-3-acetyl-4-{3-[1-(3α,7α,12α-trihydroxy-10β,13β-dimethyl-17β(3-(2-sulfoethylcarbamoyl)-1-methylpropyl)hexadecahydrocyclopenta[a]phenanthren-3-yl)eth-2-yl]benzylamino}quinoline]", "remaining activity at 30 µM": 27},
      {"smiles": "CC(=O)c1c(C)nc2ccccc2c1NCc1ccc(C#CC2(O)CCC3(C)C(CC(O)C4C3CC(O)C3(C)C4CC[C@@H]3C(C)CCC(=O)O)C2)cc1F", "note": "(stereo partly drawn) [Example 26]", "remaining activity at 30 µM": 52},
      {"smiles": "CC(=O)c1c(C)nc2ccccc2c1NCc1ccc(C#CC2(O)CCC3(C)C(CC(O)C4C3CC(O)C3(C)C4CC[C@@H]3C(C)CCC(=O)O)C2)cc1", "note": "(stereo partly drawn) [Example 1, 2-Methyl-3-acetyl-4-{4-[1-(3α,7α, 12α-trihydroxy-10β, 13β-dimethyl-17β-(carboxy-1-methylpropyl)hexadecahydrocyclopenta[a]phenanthren-3-yl)ethyn-2-yl]-benzylamino}quinoline]", "remaining activity at 30 µM": 26}
    ]}
  ]
}
